Experimental data: ChEMBL document CHEMBL5120922, “Discovery, Optimization, and Evaluation of Potent and Selective PI3Kδ-γ Dual Inhibitors for the Treatment of B-cell Malignancies” (J Med Chem, 2022)

Columns and labels:
[1] = target: T1, Phosphatidylinositol 4,5-bisphosphate 3-kinase catalytic subunit gamma isoform (Homo sapiens, UniProt P48736); experiment: Inhibition of N-terminal His6-tagged recombinant full length human PI3Kgamma expressed in baculovirus infected Sf21 insect cells at 0.1 uM by HTRF assay relative to control
SUD4 = experiment: Antiproliferative activity against human SU-DHL-4 cells assessed as cell growth inhibition measured after 72 hrs by MTT assay; assay type: functional, cell-based; conditions: SU-DHL-4, 72 h
SU-DHL-6 = experiment: Antiproliferative activity against human SU-DHL-6 cells assessed as cell growth inhibition measured after 72 hrs by MTT assay; assay type: functional, cell-based; conditions: SU-DHL-6, 72 h
[2] = target: Phosphatidylinositol 4,5-bisphosphate 3-kinase catalytic subunit alpha isoform (Homo sapiens, UniProt P42336); experiment: Inhibition of N-terminal His6-tagged recombinant full length human PI3Kalpha expressed in baculovirus infected Sf21 insect cells at 1 uM by HTRF assay relative to control
[3] = target: Phosphatidylinositol 4,5-bisphosphate 3-kinase catalytic subunit beta isoform (Homo sapiens, UniProt P42338); experiment: Inhibition of N-terminal His6-tagged recombinant full length human PI3Kbeta expressed in baculovirus infected Sf21 insect cells at 1 uM by HTRF assay relative to control
DOHH-2 = experiment: Antiproliferative activity against human DOHH-2 cells assessed as cell growth inhibition measured after 72 hrs by MTT assay; assay type: functional, cell-based; conditions: DOHH-2, 72 h
[4] = target: T2, Phosphatidylinositol 4,5-bisphosphate 3-kinase catalytic subunit delta isoform (Homo sapiens) (UniProt O00329); experiment: Inhibition of N-terminal His6-tagged recombinant full length human PI3Kdelta expressed in baculovirus infected Sf21 insect cells at 0.1 uM by HTRF assay relative to control
T2 sequence (whole entry): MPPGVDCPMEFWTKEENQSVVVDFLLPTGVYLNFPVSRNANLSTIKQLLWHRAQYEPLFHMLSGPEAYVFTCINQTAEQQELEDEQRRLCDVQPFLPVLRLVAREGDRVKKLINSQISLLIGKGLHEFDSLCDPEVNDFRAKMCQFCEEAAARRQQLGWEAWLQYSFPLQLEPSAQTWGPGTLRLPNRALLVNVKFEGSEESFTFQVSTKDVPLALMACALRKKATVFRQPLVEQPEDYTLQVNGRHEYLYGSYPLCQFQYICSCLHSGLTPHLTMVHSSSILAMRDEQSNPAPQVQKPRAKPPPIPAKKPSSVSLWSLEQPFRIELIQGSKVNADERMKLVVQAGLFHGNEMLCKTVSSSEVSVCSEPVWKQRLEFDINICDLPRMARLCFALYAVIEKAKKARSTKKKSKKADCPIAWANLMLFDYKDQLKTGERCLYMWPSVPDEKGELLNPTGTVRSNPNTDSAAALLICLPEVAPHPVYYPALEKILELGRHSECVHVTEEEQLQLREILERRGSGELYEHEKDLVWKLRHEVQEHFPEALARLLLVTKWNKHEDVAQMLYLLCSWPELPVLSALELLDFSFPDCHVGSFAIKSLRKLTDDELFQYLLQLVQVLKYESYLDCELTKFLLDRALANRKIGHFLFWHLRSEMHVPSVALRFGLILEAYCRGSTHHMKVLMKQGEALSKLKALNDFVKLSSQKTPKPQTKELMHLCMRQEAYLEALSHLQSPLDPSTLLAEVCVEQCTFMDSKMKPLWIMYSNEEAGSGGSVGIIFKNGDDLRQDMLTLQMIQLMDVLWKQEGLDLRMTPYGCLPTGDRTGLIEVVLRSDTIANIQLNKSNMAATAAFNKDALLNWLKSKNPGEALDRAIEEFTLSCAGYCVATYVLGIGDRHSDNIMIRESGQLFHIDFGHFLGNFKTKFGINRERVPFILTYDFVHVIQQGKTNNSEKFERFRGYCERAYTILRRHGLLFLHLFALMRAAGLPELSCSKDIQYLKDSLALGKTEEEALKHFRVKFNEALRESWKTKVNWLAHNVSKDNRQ

[5] = target: T2, Phosphatidylinositol 4,5-bisphosphate 3-kinase catalytic subunit delta isoform (Homo sapiens); experiment: Inhibition of N-terminal His6-tagged recombinant full length human PI3Kdelta expressed in baculovirus infected Sf21 insect cells at 1 uM by HTRF assay relative to control
[6] = target: T1, Phosphatidylinositol 4,5-bisphosphate 3-kinase catalytic subunit gamma isoform; experiment: Inhibition of N-terminal His6-tagged recombinant full length human PI3Kgamma expressed in baculovirus infected Sf21 insect cells at 1 uM by HTRF assay relative to control

T1 sequence (P48736 whole entry, looked up, canonical isoform): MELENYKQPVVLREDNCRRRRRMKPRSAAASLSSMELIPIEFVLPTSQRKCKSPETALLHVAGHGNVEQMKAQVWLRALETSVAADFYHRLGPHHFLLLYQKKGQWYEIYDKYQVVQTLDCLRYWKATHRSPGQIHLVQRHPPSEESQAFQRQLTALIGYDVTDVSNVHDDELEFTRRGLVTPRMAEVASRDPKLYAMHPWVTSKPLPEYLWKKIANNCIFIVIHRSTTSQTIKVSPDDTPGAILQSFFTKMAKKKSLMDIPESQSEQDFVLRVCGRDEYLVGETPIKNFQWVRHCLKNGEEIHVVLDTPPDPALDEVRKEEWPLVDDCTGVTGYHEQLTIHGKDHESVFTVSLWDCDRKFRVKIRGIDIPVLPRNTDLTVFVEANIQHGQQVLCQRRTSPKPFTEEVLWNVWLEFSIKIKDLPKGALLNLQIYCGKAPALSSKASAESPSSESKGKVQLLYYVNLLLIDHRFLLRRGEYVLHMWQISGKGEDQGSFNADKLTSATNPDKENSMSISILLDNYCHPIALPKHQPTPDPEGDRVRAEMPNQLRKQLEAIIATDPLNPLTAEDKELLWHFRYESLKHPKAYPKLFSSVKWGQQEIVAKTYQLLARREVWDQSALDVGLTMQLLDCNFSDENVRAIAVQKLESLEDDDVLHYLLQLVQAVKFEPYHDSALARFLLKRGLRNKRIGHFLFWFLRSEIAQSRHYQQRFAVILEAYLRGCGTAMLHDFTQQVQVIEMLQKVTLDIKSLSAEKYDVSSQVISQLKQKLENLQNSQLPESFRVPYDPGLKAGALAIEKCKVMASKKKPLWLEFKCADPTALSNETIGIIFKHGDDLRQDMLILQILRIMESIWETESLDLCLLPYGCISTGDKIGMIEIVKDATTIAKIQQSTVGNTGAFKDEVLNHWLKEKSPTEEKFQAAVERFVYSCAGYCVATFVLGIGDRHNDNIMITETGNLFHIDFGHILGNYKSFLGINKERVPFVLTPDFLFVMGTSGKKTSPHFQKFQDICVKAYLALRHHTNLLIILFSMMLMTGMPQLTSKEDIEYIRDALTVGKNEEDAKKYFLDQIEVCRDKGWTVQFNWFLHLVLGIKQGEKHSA
Chain of Phosphatidylinositol 4,5-bisphosphate 3-kinase catalytic subunit beta isoform (P42338 whole entry, looked up, canonical isoform): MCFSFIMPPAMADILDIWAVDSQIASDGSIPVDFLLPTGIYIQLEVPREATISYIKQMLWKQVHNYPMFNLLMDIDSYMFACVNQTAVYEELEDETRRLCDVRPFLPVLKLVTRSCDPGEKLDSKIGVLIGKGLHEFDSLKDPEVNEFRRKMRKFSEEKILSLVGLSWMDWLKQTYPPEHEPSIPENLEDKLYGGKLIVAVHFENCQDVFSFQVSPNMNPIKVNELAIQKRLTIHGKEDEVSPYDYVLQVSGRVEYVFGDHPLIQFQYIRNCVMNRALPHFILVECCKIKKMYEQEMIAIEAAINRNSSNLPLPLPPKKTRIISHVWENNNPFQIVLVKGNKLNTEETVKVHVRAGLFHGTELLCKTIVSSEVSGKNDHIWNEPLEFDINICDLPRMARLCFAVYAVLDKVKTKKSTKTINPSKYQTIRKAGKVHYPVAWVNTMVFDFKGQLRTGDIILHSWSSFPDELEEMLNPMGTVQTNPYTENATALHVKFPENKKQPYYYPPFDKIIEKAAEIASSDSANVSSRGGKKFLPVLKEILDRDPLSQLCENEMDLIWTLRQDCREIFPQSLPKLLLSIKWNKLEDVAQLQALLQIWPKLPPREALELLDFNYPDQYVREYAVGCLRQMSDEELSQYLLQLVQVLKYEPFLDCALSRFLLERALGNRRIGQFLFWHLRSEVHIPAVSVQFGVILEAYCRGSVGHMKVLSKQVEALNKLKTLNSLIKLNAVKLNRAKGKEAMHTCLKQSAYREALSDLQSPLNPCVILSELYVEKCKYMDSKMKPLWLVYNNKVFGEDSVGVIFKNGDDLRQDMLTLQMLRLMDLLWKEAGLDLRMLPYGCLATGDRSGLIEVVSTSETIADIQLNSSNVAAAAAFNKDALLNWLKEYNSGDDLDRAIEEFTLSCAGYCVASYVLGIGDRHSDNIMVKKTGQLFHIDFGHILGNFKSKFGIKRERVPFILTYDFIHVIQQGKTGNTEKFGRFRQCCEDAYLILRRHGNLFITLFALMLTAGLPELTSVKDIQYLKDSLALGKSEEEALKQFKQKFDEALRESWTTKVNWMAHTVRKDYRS
Chain of Phosphatidylinositol 4,5-bisphosphate 3-kinase catalytic subunit alpha isoform (P42336 whole entry, canonical isoform): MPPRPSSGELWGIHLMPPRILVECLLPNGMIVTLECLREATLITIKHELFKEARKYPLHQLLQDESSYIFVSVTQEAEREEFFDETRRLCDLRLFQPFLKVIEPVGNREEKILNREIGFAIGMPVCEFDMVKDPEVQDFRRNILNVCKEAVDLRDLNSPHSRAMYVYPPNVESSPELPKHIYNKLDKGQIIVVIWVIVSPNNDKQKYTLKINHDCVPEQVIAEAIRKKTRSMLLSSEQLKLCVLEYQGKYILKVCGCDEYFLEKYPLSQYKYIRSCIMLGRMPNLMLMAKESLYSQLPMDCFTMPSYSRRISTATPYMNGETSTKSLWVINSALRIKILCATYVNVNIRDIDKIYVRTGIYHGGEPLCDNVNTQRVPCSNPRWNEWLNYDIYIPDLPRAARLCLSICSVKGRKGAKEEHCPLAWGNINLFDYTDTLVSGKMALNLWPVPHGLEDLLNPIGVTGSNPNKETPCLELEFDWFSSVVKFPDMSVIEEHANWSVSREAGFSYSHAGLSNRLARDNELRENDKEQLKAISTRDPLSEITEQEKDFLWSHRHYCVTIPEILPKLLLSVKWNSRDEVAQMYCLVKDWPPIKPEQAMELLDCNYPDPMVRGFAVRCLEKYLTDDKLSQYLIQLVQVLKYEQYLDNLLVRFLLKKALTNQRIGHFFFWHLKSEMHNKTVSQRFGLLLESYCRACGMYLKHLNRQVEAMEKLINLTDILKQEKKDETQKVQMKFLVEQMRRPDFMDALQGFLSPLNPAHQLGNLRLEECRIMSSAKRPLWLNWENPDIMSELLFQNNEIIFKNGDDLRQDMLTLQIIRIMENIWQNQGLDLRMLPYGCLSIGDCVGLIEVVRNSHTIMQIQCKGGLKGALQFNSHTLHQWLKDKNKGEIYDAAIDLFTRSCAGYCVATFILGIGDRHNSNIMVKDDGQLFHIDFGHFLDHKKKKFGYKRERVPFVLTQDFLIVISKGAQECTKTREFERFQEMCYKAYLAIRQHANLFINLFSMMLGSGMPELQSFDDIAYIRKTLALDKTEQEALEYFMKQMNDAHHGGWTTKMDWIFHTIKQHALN

inhibition [1] [%] | IC50 (SU-DHL-6) [nM] | inhibition [2] [%] | inhibition [3] [%] | inhibition [4] [%] | inhibition [5] [%] | inhibition [6] [%] | SMILES | IC50 (SUD4) [nM] | IC50 (DOHH-2) [nM]
34 | 480 | 31 | 63 | 21 |  |  | C[C@H]1CC[C@@H](c2nc3cccc(-c4cnn(C5CC5)c4)c3c(=O)n2-c2cccnc2)N1c1nc(N)nc(N)c1C#N | 700 | 2130
65 | 2470 | 23 | 78 | 62 |  |  | Cc1ccccc1C#Cc1cccc2nc([C@@H]3CC[C@H](C)N3c3nc(N)nc(N)c3C#N)n(-c3ccccc3)c(=O)c12 | 3580 | 760
10 | 310 | 72 | 33 | 10 | 11 | 0 | C[C@H]1CC[C@@H](c2nc3cccc(Cl)c3c(=O)n2N2CCOCC2)N1c1nc(N)nc(N)c1C#N | 200 | 370
45 | 420 | 91 | 53 | 81 | 5 | -2 | C[C@H]1CC[C@@H](c2nc3cccc(Cl)c3c(=O)n2N2CCOCC2)N1c1nc(N)nc2[nH]cnc12 | 600 | 1440
35 | 670 | 16 | 42 | 9 |  |  | COc1cccc(C#Cc2cccc3nc([C@@H]4CC[C@H](C)N4c4nc(N)nc(N)c4C#N)n(-c4ccccc4)c(=O)c23)c1 | 510 | 450
83 | 2620 | 35 | 69 | 64 |  |  | Cc1cccc(C#Cc2cccc3nc([C@@H]4CC[C@H](C)N4c4nc(N)nc(N)c4C#N)n(-c4ccccc4)c(=O)c23)c1 | 3310 | 4130
 | 390 |  |  |  |  |  | C[C@H](Nc1ncnc2nc[nH]c12)c1cc2cccc(Cl)c2c(=O)n1-c1ccccc1 [DUVELISIB] | 270 | 200
57 | 290 | 26 | 49 |  |  |  | C[C@H]1CC[C@@H](c2nc3cccc(-c4cncnc4)c3c(=O)n2-c2ccccc2)N1c1nc(N)nc(N)c1C#N | 320 | 1940
20 | 470 | 26 | 46 |  |  |  | C[C@H]1CC[C@@H](c2nc3cccc(-c4cnn(C(F)F)c4)c3c(=O)n2-c2ccccc2)N1c1nc(N)nc(N)c1C#N | 330 | 670
29 | 250 | 25 | 59 | 16 |  |  | C[C@H]1CC[C@@H](c2nc3cccc(-c4cnn(C5CC5)c4)c3c(=O)n2-c2cccc(F)c2)N1c1nc(N)nc(N)c1C#N | 660 | 970
91 | 2660 | 63 | 98 | 43 |  |  | C[C@H]1CC[C@@H](c2nc3ccc(F)cc3c(=O)n2-c2cccnc2)N1c1nc(N)nc(N)c1C#N | 1220 | 1890
29 | 390 | 14 | 77 |  |  |  | COc1ccc(-c2cccc3nc([C@@H]4CC[C@H](C)N4c4nc(N)nc(N)c4C#N)n(-c4ccccc4)c(=O)c23)cn1 | 600 | 630
70 | 1710 | 39 | 44 | 7 |  |  | C[C@H]1CC[C@@H](c2nc3cc(F)ccc3c(=O)n2-c2cccnc2)N1c1nc(N)nc(N)c1C#N | 580 | 570
49 | 520 | -2 | 15 | 5 |  |  | C[C@H]1CC[C@@H](c2nc3cccc(C#Cc4ccsc4)c3c(=O)n2-c2ccccc2)N1c1nc(N)nc(N)c1C#N | 540 | 650
89 | 770 | 56 | 100 | 89 |  |  | C[C@H]1CC[C@@H](c2nc3ccc(Cl)cc3c(=O)n2-c2cccnc2)N1c1nc(N)nc(N)c1C#N | 900 | 1050
21 | 230 | 20 | -3 | -2 |  |  | Cc1cccc2nc([C@@H]3CC[C@H](C)N3c3nc(N)nc(N)c3C#N)n(-c3cccnc3)c(=O)c12 | 50 | 130
29 | 600 | 11 | 41 | 6 |  |  | C[C@H]1CC[C@@H](c2nc3cccc(C#Cc4ccccn4)c3c(=O)n2-c2ccccc2)N1c1nc(N)nc(N)c1C#N | 320 | 790
80 | 1720 | 35 | 78 | 56 |  |  | Cc1ccc(C#Cc2cccc3nc([C@@H]4CC[C@H](C)N4c4nc(N)nc(N)c4C#N)n(-c4ccccc4)c(=O)c23)cc1 | 1230 | 680
23 | 150 | 10 | 54 | 8 |  |  | COc1cncc(-c2cccc3nc([C@@H]4CC[C@H](C)N4c4nc(N)nc(N)c4C#N)n(-c4cccnc4)c(=O)c23)c1 | 590 | 810
41 | 700 | 5 | 44 |  |  |  | COc1ccc(-c2cccc3nc([C@@H]4CC[C@H](C)N4c4nc(N)nc(N)c4C#N)n(-c4ccccc4)c(=O)c23)cc1 | 890 | 1140
67 | 400 | 44 | 36 | 7 |  |  | C[C@H]1CC[C@@H](c2nc3cccc(F)c3c(=O)n2-c2cccnc2)N1c1nc(N)nc(N)c1C#N | 120 | 560
40 | 400 | 22 | 11 | -3 |  |  | C[C@H]1CC[C@@H](c2nc3cccc(C#Cc4ccccc4)c3c(=O)n2-c2ccccc2)N1c1nc(N)nc(N)c1C#N | 670 | 1840
1 | 480 | 58 | 57 | 5 | -4 |  | C[C@H]1CC[C@@H](c2nc3cccc(Cl)c3c(=O)n2-c2cccc(F)c2)N1c1nc(N)nc2[nH]cnc12 | 350 | 2610
52 | 920 | 30 | 23 | 6 |  |  | C[C@H]1CC[C@@H](c2nc3c(F)cccc3c(=O)n2-c2cccnc2)N1c1nc(N)nc(N)c1C#N | 620 | 440
83 | 1040 | 25 | 62 | 43 |  |  | COc1ccc(C#Cc2cccc3nc([C@@H]4CC[C@H](C)N4c4nc(N)nc(N)c4C#N)n(-c4ccccc4)c(=O)c23)cc1 | 1050 | 3980
